In patent US20240360134A1, “PYRAZOLOPYRIMIDINES AND THEIR USES AS PDGFR INHIBITORS” (priority 2021, published 2024):
pIC50: −log10 of the molar value. Where two headings read alike, the source gives them in different places.

Experiments:
[1] = biological target: PDGFRβ (Rattus norvegicus (Rat), UniProt Q05030); assay: PDGFRβ Cellular Assay (PDGFRb P-Y751 HTRF, PDGF-BB stimulated A10 cells); type: cell-based
Experimental: Cell Culture and Preparation: Cells are cultured according to ATCC procedure (5) with the addition of the antibiotic penicillin-streptomycin. If working from frozen, cells should be thawed according to ATCC procedure. Depending on the cell density of frozen vial, cells will need time to recover from thaw. An 80% confluent T75 flask should be enough for one 384 well plate.
Stock Solutions: Rat PDGFBB. A 100 ug/mL stock is prepared by reconstituting 50 ug in 500 μL of 4 mM HCl and 0.1% BSA. It can be stored for a month at 4° C., or aliquoted out and frozen in the −20/−80° C. to avoid multiple free-thaw cycles.
1× Cisbio cell lysis buffer. The cell lysis buffer is diluted 4-fold with molecular grade water. The blocking agent is then diluted 25-fold in the diluted lysis buffer.
Antibody solutions. Equal amounts d2 and cryptate antibody are diluted 20-fold in detection buffer.
Rat PDGFBB. A working stock of 100 ng/mL is created from the stock solution in 10% FBS culture media.
Step 1: Plating Cells: Media from the A10 cell flask is aspirated. The cells are rinsed with PBS and then trypsinized to disperse the cell layer. The cells are then pelleted are resuspended to 1.25e5 cells/mL. […] Plates are covered and placed in the incubator (37° C. 5% CO2) overnight to allow cells to adhere.
Step 2: Compound Dispense: Approximately 18 hours after plating, dispense 40 nL compound onto cells using Echo. […] The plate is returned to the incubator for 3 hours.
After 10 minutes the media is removed by flicking the plate.
Step 4: Cell lysis and antibody addition: 20 uL lysis buffer per well is added to the plate via Tempest. 5 uL antibody solution is added per well via the Tempest. The plate is placed on the shaker at 230 rpm for 1 hour at room temperature.
Step 5: Detection: The plate is read using the HTRF module on the BMG Pherastar. Data is analyzed using Genedata Screener.
IC50 values are determined from a 4-parameter fit, using the following equation: Y=Bottom+(Top−Bottom)/(1+10((Log IC50−X)*Hill slope)), where X=log10 of the compound concentration; top can be defined by PC; bottom defined by NC.

[2] = biological target: VEGFR2, unphosphorylated (Homo sapiens (Human), UniProt P35968); assay: VEGFR ADP GLO assay; type: biochemical; details: 5 nM VEGFR2, 1.2 mM ATP, 1 mg/mL Srctide, 180 min
VEGFR2, unphosphorylated, sequence (P35968 whole entry, looked up): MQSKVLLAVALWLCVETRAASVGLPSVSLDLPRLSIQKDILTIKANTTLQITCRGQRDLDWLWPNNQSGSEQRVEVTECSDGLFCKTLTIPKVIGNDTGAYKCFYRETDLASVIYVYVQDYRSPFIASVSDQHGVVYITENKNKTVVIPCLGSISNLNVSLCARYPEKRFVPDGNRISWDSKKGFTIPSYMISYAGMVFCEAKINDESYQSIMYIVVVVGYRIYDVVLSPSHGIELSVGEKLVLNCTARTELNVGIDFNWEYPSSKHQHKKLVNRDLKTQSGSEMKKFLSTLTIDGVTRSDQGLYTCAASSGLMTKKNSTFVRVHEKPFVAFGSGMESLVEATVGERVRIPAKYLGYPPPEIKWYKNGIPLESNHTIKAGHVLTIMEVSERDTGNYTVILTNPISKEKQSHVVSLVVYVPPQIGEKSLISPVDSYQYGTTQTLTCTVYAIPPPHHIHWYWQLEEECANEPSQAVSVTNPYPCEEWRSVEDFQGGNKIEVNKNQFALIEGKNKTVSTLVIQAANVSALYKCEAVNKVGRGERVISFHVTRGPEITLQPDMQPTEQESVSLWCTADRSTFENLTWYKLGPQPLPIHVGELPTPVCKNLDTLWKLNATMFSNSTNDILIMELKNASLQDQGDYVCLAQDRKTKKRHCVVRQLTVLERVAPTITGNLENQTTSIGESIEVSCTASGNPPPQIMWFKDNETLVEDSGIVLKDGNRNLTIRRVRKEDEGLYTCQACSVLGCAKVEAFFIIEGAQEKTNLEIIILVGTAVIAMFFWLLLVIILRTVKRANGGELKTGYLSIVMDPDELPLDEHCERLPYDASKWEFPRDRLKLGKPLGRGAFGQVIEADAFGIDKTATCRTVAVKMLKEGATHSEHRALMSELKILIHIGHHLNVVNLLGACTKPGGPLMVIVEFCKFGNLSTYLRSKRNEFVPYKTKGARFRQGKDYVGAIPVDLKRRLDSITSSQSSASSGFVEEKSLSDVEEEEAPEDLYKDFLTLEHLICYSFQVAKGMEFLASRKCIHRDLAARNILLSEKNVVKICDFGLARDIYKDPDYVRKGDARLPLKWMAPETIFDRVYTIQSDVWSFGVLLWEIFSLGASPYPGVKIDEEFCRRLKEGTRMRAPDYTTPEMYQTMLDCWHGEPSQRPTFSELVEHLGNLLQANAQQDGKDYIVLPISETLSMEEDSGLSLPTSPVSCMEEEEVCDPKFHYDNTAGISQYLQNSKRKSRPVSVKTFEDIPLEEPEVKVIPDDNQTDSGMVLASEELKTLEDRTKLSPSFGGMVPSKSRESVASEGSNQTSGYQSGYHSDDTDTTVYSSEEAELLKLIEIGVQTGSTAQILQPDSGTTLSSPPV
Experimental: Assay buffer stock contains 50 mM HEPES pH7.5, 10 mM MgCl2, 0.01% Brij-35, and 1 mM EGTA.
Unphosphorylated VEGFR2. 52.6 μM in 50 mM Tris-HCl, pH 8.0, 50 mM NaCl, 5% Glycerol, 0.5 mM TCEP. Store at −80° C. in aliquots.
10 mg/mL srctide solution, prepared in Assay buffer (Assay buffer stock with 2 mM DTT, 0.1% Pluronic F-127, and 0.1 mg/mL ovalbumin). Sonicate 10 mg/ml Srctide solution for 10 minutes and then vacuum filter.
Assay buffer. Add DTT to 2 mM, Pluronic F-127 to 0.1% and ovalbumin to 0.1 mg/mL to Assay buffer stock.
2× kinase solution. Make a working solution of 10 nM unphosphorylated VEGFR2 in Assay buffer. Vacuum filter 2× kinase solution prior to running assay. Keep on ice until use.
2× substrate/ATP solution. Make a working solution of 2 mg/mL srctide and 2.4 mM ATP in Assay buffer. Keep on ice until use.
Step 1. Dispensing inhibitors/controls: Using Echo, dispense 10 nL/well compound serial dilutions in DMSO to columns 1-22 (in 384-well plates) or columns 1-44 (in 1536-well plates). Dilution series=11 pt, 3-fold dilutions. The top compound concentration in the source plate is 4 mM. The top compound concentration in the assay plate is 10 uM. Using Echo, dispense 10 nl/well DMSO to column 23 (in 384-well plates) or columns 45-47 (in 1536-well plates). These wells will serve as negative control wells Using Echo, dispense 10 nl/well 400 uM TAK-593 in DMSO to column 24 (in 384-well plates) or column 48 (in 1536-well plates). The final concentration of TAK-593 in the assay should be 1 uM. These wells will serve as positive control wells.
Step 2. Pre-incubation of inhibitors with kinase: Add 2 μL/well 2× kinase solution. Centrifuge at 1000 rpm for 1 min. Incubate at room temperature for 30 min.
Step 3. Kinase cascade reaction: Add 2 μL/well 2× substrate/ATP solution to initiate kinase reactions. Centrifuge at 1000 rpm for 1 min. Incubate at room temperature for 180 min.
Final concentrations of components in the assay:
Step 4. Quench: Add 2 uL/well ADP Glo Reagent+0.05% CHAPS. Centrifuge at 1000 rpm for 1 min; Incubate at room temperature for one hour.
Step 5. Detection: Add 2 uL/well Kinase Detection Reagent+0.05% CHAPS. Centrifuge at 1000 rpm for 1 min; Incubate at room temperature for 1 hour; Read Luminescence on a plate reader.
% Inhibition: % Inhibition=(NC−sample)/(NC−PC)*100 where NC is the mean of negative control (reactions without inhibitor), and PC is the mean of positive control (1 μM TAK-593).
IC50 values are determined from a 4-parameter fit, using the following equation: Y=Bottom+(Top−Bottom)/(1+10^(Log IC50-X)*Hill Slope), where X=log10 of the compound concentration; top can be defined by PC; bottom defined by NC.

PDGFRβ, sequence (Q05030 whole entry, looked up): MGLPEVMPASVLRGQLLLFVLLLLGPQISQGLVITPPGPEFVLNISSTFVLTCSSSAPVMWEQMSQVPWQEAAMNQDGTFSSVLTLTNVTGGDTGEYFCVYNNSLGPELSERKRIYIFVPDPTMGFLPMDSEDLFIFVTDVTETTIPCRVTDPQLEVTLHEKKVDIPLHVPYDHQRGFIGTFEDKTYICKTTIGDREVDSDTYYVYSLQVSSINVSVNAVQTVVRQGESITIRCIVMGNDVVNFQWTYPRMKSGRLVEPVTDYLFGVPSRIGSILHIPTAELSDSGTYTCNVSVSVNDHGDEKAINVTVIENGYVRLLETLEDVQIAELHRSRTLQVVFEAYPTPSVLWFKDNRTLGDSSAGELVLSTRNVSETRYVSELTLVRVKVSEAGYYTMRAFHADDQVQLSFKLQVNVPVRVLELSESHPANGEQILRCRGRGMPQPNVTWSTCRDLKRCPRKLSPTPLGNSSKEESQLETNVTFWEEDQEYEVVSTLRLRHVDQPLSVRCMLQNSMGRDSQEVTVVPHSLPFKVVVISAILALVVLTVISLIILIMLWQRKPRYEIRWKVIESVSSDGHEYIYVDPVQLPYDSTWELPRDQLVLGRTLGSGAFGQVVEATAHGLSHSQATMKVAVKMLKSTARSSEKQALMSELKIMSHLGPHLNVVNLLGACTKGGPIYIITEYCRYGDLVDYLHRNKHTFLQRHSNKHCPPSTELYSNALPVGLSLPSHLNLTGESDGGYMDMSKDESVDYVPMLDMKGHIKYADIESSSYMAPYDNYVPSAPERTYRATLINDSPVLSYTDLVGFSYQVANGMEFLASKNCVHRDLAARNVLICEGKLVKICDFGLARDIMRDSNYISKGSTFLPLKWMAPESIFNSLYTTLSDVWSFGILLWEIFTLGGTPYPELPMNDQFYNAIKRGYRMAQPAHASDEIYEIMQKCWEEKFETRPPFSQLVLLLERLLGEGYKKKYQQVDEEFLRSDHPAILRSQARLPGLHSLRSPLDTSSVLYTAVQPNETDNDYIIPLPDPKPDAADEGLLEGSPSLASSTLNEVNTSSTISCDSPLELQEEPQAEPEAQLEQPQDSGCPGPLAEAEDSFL

| SMILES | pIC50 [1] | pIC50 [2] | pIC50 ([1]; A10 cells, 3 hours compound, 15 ng/mL PDGFbb for 10 minutes, read-out: PDGFR Cellular IC50) |
| --- | --- | --- | --- |
| Cc1ncc(C(=O)NCCN2CCS(=O)(=O)CC2)cc1Nc1nn(C)c2nc(Nc3cnn(C)c3)ncc12 [Example 23, N-(2-(1,1-dioxidothiomorpholino)ethyl)-6-methyl-5-((1-methyl-6-((1-methyl-1H-pyrazol-4-yl)amino)-1H-pyrazolo[3,4-d]pyrimidin-3-yl)amino)nicotinamide] | 6.53 | < 5.12 |  |
| Cc1ncc(C(=O)NCCN2CCOCC23CC3)cc1Nc1nn(C)c2nc(Nc3cnn(C)c3)ncc12 [Example 24, N-(2-(7-oxa-4-azaspiro[2.5]octan-4-yl)ethyl)-6-methyl-5-((1-methyl-6-((1-methyl-1H-pyrazol-4-yl)amino)-1H-pyrazolo[3,4-d]pyrimidin-3-yl)amino)nicotinamide] | 7.66 | < 5.12 |  |
| Cc1ncc(C(=O)NCCN2CCCC2(C)C)cc1Nc1nn(C)c2nc(Nc3ccn(C)n3)ncc12 [Example 34, N-(2-(2,2-dimethylpyrrolidin-1-yl)ethyl)-6-methyl-5-((1-methyl-6-((1-methyl-1H-pyrazol-3-yl)amino)-1H-pyrazolo[3,4-d]pyrimidin-3-yl)amino)nicotinamide] |  | < 5.12 |  |
| COC1CCN(CCNC(=O)c2cnc(C)c(Nc3nn(C)c4nc(Nc5cnn(C)c5)ncc34)c2)CC1 [Example 22, N-(2-(4-methoxypiperidin-1-yl)ethyl)-6-methyl-5-((1-methyl-6-((1-methyl-1H-pyrazol-4-yl)amino)-1H-pyrazolo[3,4-d]pyrimidin-3-yl)amino)nicotinamide] | 7.05 | < 5.12 |  |
| Cc1ncc(C(=O)NCCN2CCC3(CCO3)CC2)cc1Nc1nn(C)c2nc(Nc3cnn(C)c3)ncc12 [Example 19, N-(2-(1-oxa-7-azaspiro[3.5]nonan-7-yl)ethyl)-6-methyl-5-((1-methyl-6-((1-methyl-1H-pyrazol-4-yl)amino)-1H-pyrazolo[3,4-d]pyrimidin-3-yl)amino)nicotinamide] | 7.25 | < 5.12 |  |
| Cc1ncc(C(=O)NCCN2CC3COCC3C2)cc1Nc1nn(C)c2nc(Nc3cnn(C)c3)ncc12 (stereo not drawn) [Example 26, 6-methyl-5-((1-methyl-6-((1-methyl-1H-pyrazol-4-yl)amino)-1H-pyrazolo[3,4-d]pyrimidin-3-yl)amino)-N-(2-(tetrahydro-1H-furo[3,4-c]pyrrol-5(3H)-yl)ethyl)nicotinamide] | 7.03 | < 5.12 |  |
| Cc1ncc(C(=O)NCCN2CC[C@@H](C)C2)cc1Nc1nn(C)c2nc(Nc3cncnc3)ncc12 [Example 59, (R)-6-methyl-5-((1-methyl-6-(pyrimidin-5-ylamino)-1H pyrazolo-[3,4-d]pyrimidin-3-yl)amino)-N-(2-(3-methylpyrrolidin-1-yl)ethyl)nicotinamide] |  | < 5.12 | 6.72 |
| Cc1ncc(C(=O)NCCN2CCCC23COC3)cc1Nc1nn(C)c2nc(Nc3cnn(C)c3)ncc12 [Example 18, N-(2-(2-oxa-5-azaspiro[3.4]octan-5-yl)ethyl)-6-methyl-5-((1-methyl-6-((1-methyl-1H-pyrazol-4-yl)amino)-1H-pyrazolo[3,4-d]pyrimidin-3-yl)amino)nicotinamide] | 7.40 | < 5.12 |  |
| Cc1ncc(C(=O)NCCN2CCOC3(CC3)C2)cc1Nc1nn(C)c2nc(Nc3cnn(C)c3)ncc12 [Example 54, N-(2-(4-oxa-7-azaspiro[2.5]octan-7-yl)ethyl)-6-methyl-5-((1-methyl-6-((1-methyl-1H-pyrazol-4-yl)amino)-1H-pyrazolo[3,4-d]pyrimidin-3-yl)amino)nicotinamide] | 7.44 | 5.33 |  |
| Cc1ncc(C(=O)NCCN2CCC3(CC2)COC3)cc1Nc1nn(C)c2nc(Nc3cnn(C)c3)ncc12 [Example 20, N-(2-(2-oxa-7-azaspiro[3.5]nonan-7-yl)ethyl)-6-methyl-5-((1-methyl-6-((1-methyl-1H-pyrazol-4-yl)amino)-1H-pyrazolo[3,4-d]pyrimidin-3-yl)amino)nicotinamide] | 6.77 | < 5.12 |  |
| Cn1nc(Nc2cc(C(=O)NCCN3CCCC3(C)C)ccc2F)c2cnc(Nc3ccnnc3)nc21 [Example 50, N-(2-(2,2-dimethylpyrrolidin-1-yl)ethyl)-4-fluoro-3-((1-methyl-6-(pyridazin-4-ylamino)-1H-pyrazolo[3,4-d]pyrimidin-3-yl)amino)benzamide] | 7.34 | < 5.12 |  |
| Cc1ncc(C(=O)NCCN2CCC3(CCC3)C2)cc1Nc1nn(C)c2nc(Nc3cnn(C)c3)ncc12 [Example 83, N-(2-(6-azaspiro[3.4]octan-6-yl)ethyl)-6-methyl-5-((1-methyl-6-((1-methyl-1H-pyrazol-4-yl)amino)-1H-pyrazolo[3,4-d]pyrimidin-3-yl)amino)nicotinamide] | 7.58 | < 5.12 |  |
| COCC1CCCN1CCNC(=O)c1cnc(C)c(Nc2nn(C)c3nc(Nc4cnn(C)c4)ncc23)c1 (stereo not drawn) [Example 25, N-(2-(2-(methoxymethyl)pyrrolidin-1-yl)ethyl)-6-methyl-5-((1-methyl-6-((1-methyl-1H-pyrazol-4-yl)amino)-1H-pyrazolo[3,4-d]pyrimidin-3-yl)amino)nicotinamide] | 7.89 | < 5.12 |  |
| Cc1ncc(C(=O)NCCN(C)C2CCOCC2)cc1Nc1nn(C)c2nc(Nc3cnn(C)c3)ncc12 [Example 21, 6-methyl-N-(2-(methyl(tetrahydro-2H-pyran-4-yl)amino)ethyl)-5-((1-methyl-6-((1-methyl-1H-pyrazol-4-yl)amino)-1H-pyrazolo[3,4-d]pyrimidin-3-yl)amino)nicotinamide] | 7.18 | < 5.12 |  |
| Cc1ncc(C(=O)NCCN2CCCC23CC3)cc1Nc1nn(C)c2nc(Nc3cnn(C)c3)ncc12 [Example 53, N-(2-(4-azaspiro[2.4]heptan-4-yl)ethyl)-6-methyl-5-((1-methyl-6-((1-methyl-1H-pyrazol-4-yl)amino)-1H-pyrazolo[3,4-d]pyrimidin-3-yl)amino)nicotinamide] | 8.21 | 5.37 |  |
| Cc1ncc(C(=O)NCCN2CCCC2(C)C)cc1Nc1nn(C)c2nc(Nc3cnn(C)c3)ncc12 [Example 39, N-(2-(2,2-dimethylpyrrolidin-1-yl)ethyl)-6-methyl-5-((1-methyl-6-((1-methyl-1H-pyrazol-4-yl)amino)-1H-pyrazolo[3,4-d]pyrimidin-3-yl)amino)nicotinamide] |  | < 5.12 |  |
